Measurements taken from US7569578B2, “Heterocyclic anti-migraine agents” (Bristol-Meyers Squibb Company, priority 2003, dated 2009).

target: T1, Human CGRP1 Receptor (Homo sapiens, UniProt O60894+Q16602); assay: CGRP Binding Assay ([125I]-CGRP radioligand displacement, SK-N-MC membrane homogenate); conditions: not given
T1 construct: endogenous in cells; host or cells: SK-N-MC cells (membrane homogenate)
Procedure: Tissue Culture. SK-N-MC cells were grown at 37° C. in 5% CO2 as a monolayer in medium consisting of MEM with Earle's salts and L-glutamine (Gibco) supplemented with 10% fetal bovine serum (Gibco).
Cell Pellets. […] The cells were transferred from plates to polypropylene tubes (16×100 mm) and homogenized using a polytron. Homogenates were centrifuged at 32,000×g for 30 min. The pellets were resuspended in cold hypotonic lysis buffer with 0.1% mammalian protease inhibitor cocktail (Sigma) and assayed for protein concentration. The SK-N-MC homogenate was then aliquoted and stored at −80° C. until needed.
Radioligand Binding Assay. The compounds of invention were solubilized and carried through serial dilutions using 100% DMSO. Aliquots from the compound serial dilutions were further diluted 25 fold into assay buffer (50 mM Tris-Cl pH 7.5, 5 mM MgCl2, 0.005% Triton X-100) and transferred (volume 50 μl) into 96 well assay plates. […] SK-N-MC pellets were thawed, diluted in assay buffer with fresh 0.1% mammalian protease inhibitor cocktail (Sigma), and homogenized again. SK-N-MC homogenate (5 μg/well) was added in a volume of 100 μl. The assay plates were then incubated at room temperature for 2 h. Assays were stopped by addition of excess cold wash buffer (20 mM Tris-Cl pH 7.5, 0.1% BSA) immediately followed by filtration over glass fiber filters (Whatman GF/B) previously soaked in 0.5% PEI. Non-specific binding was defined with 1 μM beta-CGRP. Protein bound radioactivity was determined using a gamma or scintillation counter.

T1 sequence (Q16602 23-461): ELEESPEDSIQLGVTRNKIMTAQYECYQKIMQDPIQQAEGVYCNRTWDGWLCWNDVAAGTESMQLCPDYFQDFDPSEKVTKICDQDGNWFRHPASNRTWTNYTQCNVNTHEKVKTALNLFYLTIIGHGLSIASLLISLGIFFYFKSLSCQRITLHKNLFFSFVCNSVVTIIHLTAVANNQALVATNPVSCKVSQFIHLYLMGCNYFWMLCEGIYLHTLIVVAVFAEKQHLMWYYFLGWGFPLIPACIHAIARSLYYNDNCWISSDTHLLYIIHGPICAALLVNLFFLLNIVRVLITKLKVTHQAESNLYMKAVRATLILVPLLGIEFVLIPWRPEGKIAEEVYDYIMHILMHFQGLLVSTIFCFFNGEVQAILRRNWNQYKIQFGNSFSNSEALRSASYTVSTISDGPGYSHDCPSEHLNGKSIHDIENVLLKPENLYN
T1 sequence (O60894 27-148): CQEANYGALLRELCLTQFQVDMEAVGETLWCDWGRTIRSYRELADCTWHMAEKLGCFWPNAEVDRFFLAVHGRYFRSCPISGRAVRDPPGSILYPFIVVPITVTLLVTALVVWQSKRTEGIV

How did the IC50 turn out when `Cc1cc(CC(NC(=O)N2CCC(N3Cc4ccccc4NC3=O)CC2)c2nccn2Cc2ccccc2)cc2cn[nH]c12` (racemic) [Example 67, (±)-N-(1-(1-Benzyl-1H-imidazol-2-yl)-2-(7-methyl-1H-indazol-5-yl)ethyl)-4-(2-oxo-1,2-dihydroquinazolin-3(4H)-yl)piperidine-1-carboxamide] was run?
Its IC50 is < 0.01 µM.

same assay, conditions: [125I]-CGRP displacement, SK-N-MC homogenate, room temperature 2 h; read-out: Human CGRP1 Receptor IC50

Which IC50 does the source give for `Cc1cc(CC(NC(=O)N2CCC(N3Cc4cccc(F)c4NC3=O)CC2)c2nnn(CC3CCNCC3)n2)cc2cn[nH]c12` (racemic) [Example 82, (±)-4-(8-Fluoro-2-oxo-1,2-dihydroquinazolin-3(4H)-yl)-N-(2-[7-methyl-1H-indazol-5-yl]-1-[2-(piperidin-4-ylmethyl)-1H-tetrazol-5-yl]ethyl)piperidin-1-carboxamide] here?
Its IC50 is 0.01 to 0.1 µM.

With `Cc1cc(CC(OC(=O)N2CCC(N3Cc4ccccc4NC3=O)CC2)c2cccc(OC(C)(C)C)n2)cc2cn[nH]c12` (racemic) [Example 41, (±)-1-(6-tert-Butoxypyridin-2-yl)-2-(7-methyl-1H-indazol-5-yl)ethyl 4-(2-oxo-1,2-dihydroquinazolin-3(4H)-yl)piperidine-1-carboxylate] as the compound, how does the IC50 read?
Its IC50 is 0.1 to 1 µM.

With `CCOC(=O)c1noc([C@@H](Cc2cc(C)c3[nH]ncc3c2)OC(=O)N2CCC(c3cc4ccccc4[nH]c3=O)CC2)n1` [Example 103, (R)-1-(3-(Ethoxycarbonyl)-1,2,4-oxadiazol-5-yl)-2-(7-methyl-1H-indazol-5-yl)ethyl 4-(2-oxo-1,2-dihydroquinolin-3-yl)piperidine-1-carboxylate] as the compound, how does the IC50 read?
The IC50 was 0.01 to 0.1 µM.

With `Cc1cc(CC(CC(=O)N2CCC(N3Cc4cccc(F)c4NC3=O)CC2)c2ccccn2)cc2cn[nH]c12` (racemic) [Example 23, (±)-8-Fluoro-3-(1-(4-(7-methyl-1H-indazol-5-yl)-3-(pyridin-2-yl)butanoyl)piperidin-4-yl)-3,4-dihydroquinazolin-2(1H)-one] as the compound, how does the IC50 read?
The IC50 was 0.01 to 0.1 µM.

How did the IC50 turn out when `Cc1ccc(C(CC(=O)N2CCC(N3Cc4ccccc4NC3=O)CC2)Cc2cc(C)c3[nH]ncc3c2)nc1` (racemic) [Example 26, (±)-3-(1-(4-(7-Methyl-1H-indazol-5-yl)-3-(5-methylpyridin-2-yl)butanoyl)piperidin-4-yl)-3,4-dihydroquinazolin-2(1H)-one] was run?
Its IC50 is 0.01 to 0.1 µM.

With `CC1=CC(CC(CC(=O)N2CCC(N3Cc4ccccc4NC3=O)CC2)c2nc3ccccc3[nH]2)=CC2C=NNC12` (stereo not shown) [Example 98, 3-(1-(3-(1H-Benzo[d]imidazol-2-yl)-4-(7-methyl-3a,7a-dihydro-1H-indazol-5-yl)butanoyl)piperidin-4-yl)-3,4-dihydroquinazolin-2(1H)-one] as the compound, how does the IC50 read?
The IC50 was < 0.01 µM.

`Cc1cc(C[C@@H](OC(=O)N2CCC(c3cc4ccccc4[nH]c3=O)CC2)c2nccn2Cc2cc(F)cc(F)c2)cc2cn[nH]c12` [Example 78, (R)-1-(1-(3,5-difluorobenzyl)-1H-imidazol-2-yl)-2-(7-methyl-1H-indazol-5-yl)ethyl 4-(2-oxo-1,2-dihydroquinolin-3-yl)piperidine-1-carboxylate] was tested. Which IC50 did it give?
Its IC50 is < 0.01 µM.

For `Cc1cc(CC(CC(=O)N2CCC(N3Cc4ccccc4NC3=O)CC2)c2nc(-c3ccccc3)no2)cc2cn[nH]c12` (racemic) [Example 4, (±)-3-{1-[4-(7-Methyl-1H-indazol-5-yl)-3-(3-phenyl-[1,2,4]oxadiazol-5-yl)-butyryl]-piperidin-4-yl}-3,4-dihydro-1H-quinazolin-2-one], which IC50 is on record?
The IC50 was 0.01 to 0.1 µM.

Which IC50 does the source give for `Cc1cc(CC(NC(=O)N2CCC(N3Cc4ccccc4NC3=O)CC2)c2nccn2Cc2ccc(F)cc2)cc2cn[nH]c12` (racemic) [Example 72, (±)-N-(1-(1-(4-Fluorobenzyl)-1H-imidazol-2-yl)-2-(7-methyl-1H-indazol-5-yl)ethyl)-4-(2-oxo-1,2-dihydroquinazolin-3(4H)-yl)piperidine-1-carboxamide] here?
The IC50 was < 0.01 µM.

`CCc1ccnc(C(CC(=O)N2CCC(N3Cc4ccccc4NC3=O)CC2)Cc2cc(C)c3[nH]ncc3c2)c1` (racemic) [Example 22, (±)-3-(1-(3-(4-Ethylpyridin-2-yl)-4-(7-methyl-1H-indazol-5-yl)butanoyl)piperidin-4-yl)-3,4-dihydroquinazolin-2(1H)-one] was tested. Which IC50 did it give?
The IC50 was 0.01 to 0.1 µM.

`Cc1cc(CC(CC(=O)N2CCC(c3cc4ccccc4[nH]c3=O)CC2)c2ccccn2)cc2cn[nH]c12` (racemic) [Example 24, (±)-3-(1-(4-(7-Methyl-1H-indazol-5-yl)-3-(pyridin-2-yl)butanoyl)piperidin-4-yl)quinolin-2(1H)-one] was tested. Which IC50 did it give?
Its IC50 is 0.01 to 0.1 µM.

For `Cc1cc(CC(OC(=O)N2CCC(N3Cc4cccc(F)c4NC3=O)CC2)c2ccccn2)cc2cn[nH]c12` (stereo not shown) [Example 55, 2-(7-methyl-1H-indazol-5-yl)-1-(pyridin-2-yl)ethyl 4-(8-fluoro-2-oxo-1,2-dihydroquinazolin-3(4H)-yl)piperidine-1-carboxylate], which IC50 is on record?
The IC50 was < 0.01 µM.

Which IC50 does the source give for `Cc1cc(Cn2ccnc2C(Cc2cc(C)c3[nH]ncc3c2)NC(=O)N2CCC(N3Cc4ccccc4NC3=O)CC2)ccn1` (racemic) [Example 94, (±)-N-(2-(7-Methyl-1H-indazol-5-yl)-1-(1-((2-methylpyridin-4-yl)methyl)-1H-imidazol-2-yl)ethyl)-4-(2-oxo-1,2-dihydroquinazolin-3(4H)-yl)piperidine-1-carboxamide] here?
The IC50 was < 0.01 µM.

For `Cc1cc(CC(NC(=O)N2CCC(N3Cc4cccc(F)c4NC3=O)CC2)c2cc3ccccc3cn2)cc2cn[nH]c12` (stereo not shown) [Example 51, 4-(8-fluoro-2-oxo-1,2-dihydroquinazolin-3(4H)-yl)-N-(1-(isoquinolin-3-yl)-2-(7-methyl-1H-indazol-5-yl)ethyl)piperidine-1-carboxamide], which IC50 is on record?
The IC50 was < 0.01 µM.

Which IC50 does the source give for `Cc1cc(CC(OC(=O)N2CCC(N3Cc4cccc(F)c4NC3=O)CC2)c2cccc(C#N)n2)cc2cn[nH]c12` (racemic) [Example 45, (±)-1-(6-Cyanopyridin-2-yl)-2-(7-methyl-1H-indazol-5-yl)ethyl 4-(8-fluoro-2-oxo-1,2-dihydroquinazolin-3(4H)-yl)piperidine-1-carboxylate] here?
Its IC50 is < 0.01 µM.

`Cc1cc(CC(OC(=O)N2CCC(N3Cc4cccc(F)c4NC3=O)CC2)c2cccc(CC(C)C)n2)cc2cn[nH]c12` (racemic) [Example 43, (±)-1-(6-Isobutylpyridin-2-yl)-2-(7-methyl-1H-indazol-5-yl)ethyl 4-(8-fluoro-2-oxo-1,2-dihydroquinazolin-3(4H)-yl)piperidine-1-carboxylate] was tested. Which IC50 did it give?
Its IC50 is 0.01 to 0.1 µM.

For `Cc1noc(C(CC(=O)N2CCC(N3Cc4ccccc4NC3=O)CC2)Cc2cc(C)c3[nH]ncc3c2)n1` (racemic) [Example 5, (±)-3-{1-[4-(7-Methyl-1H-indazol-5-yl)-3-(3-methyl-[1,2,4]oxadiazol-5-yl)-butyryl]-piperidin-4-yl}-3,4-dihydro-1H-quinazolin-2-one], which IC50 is on record?
Its IC50 is 0.01 to 0.1 µM.

With `Cc1cc(CC(CC(=O)N2CCC(N3Cc4ccccc4NC3=O)CC2)c2ccc(CN3CCCCC3)cn2)cc2cn[nH]c12` (racemic) [Example 29, (±)-3-(1-(4-(7-Methyl-1H-indazol-5-yl)-3-(5-(piperidin-1-ylmethyl)pyridin-2-yl)butanoyl)piperidin-4-yl)-3,4-dihydroquinazolin-2(1H)-one] as the compound, how does the IC50 read?
The IC50 was < 0.01 µM.

For `Cc1cc(CC(OC(=O)N2CCC(N3Cc4ccccc4NC3=O)CC2)c2ccc3ccccc3n2)cc2cn[nH]c12` (stereo not shown) [Example 61, 2-(7-Methyl-1H-indazol-5-yl)-1-(quinolin-2-yl)ethyl 4-(2-oxo-1,2-dihydroquinazolin-3(4H)-yl)piperidine-1-carboxylate], which IC50 is on record?
Its IC50 is < 0.01 µM.

How did the IC50 turn out when `CC1=CC(CC(CC(=O)N2CCC(N3Cc4cccc(F)c4NC3=O)CC2)c2nccn2Cc2ccc(C(C)(C)C)cc2)=CC2C=NNC12` (stereo not shown) [Example 96, 3-(1-(3-(1-(4-tert-Butylbenzyl)-1H-imidazol-2-yl)-4-(7-methyl-3a,7a-dihydro-1H-indazol-5-yl)butanoyl)piperidin-4-yl)-8-fluoro-3,4-dihydroquinazolin-2(1H)-one] was run?
The IC50 was < 0.01 µM.

How did the IC50 turn out when `Cc1cc(CC(NC(=O)N2CCC(c3cc4ccccc4[nH]c3=O)CC2)c2cc3ccccc3cn2)cc2cn[nH]c12` (stereo not shown) [Example 36, N-(1-(Isoquinolin-3-yl)-2-(7-methyl-1H-indazol-5-yl)ethyl)-4-(2-oxo-1,2-dihydroquinolin-3-yl)piperidine-1-carboxamide] was run?
Its IC50 is < 0.01 µM.

`Cc1cc(CC(OC(=O)N2CCC(N3Cc4ccccc4NC3=O)CC2)c2cc(CO)ccn2)cc2cn[nH]c12` (racemic) [Example 46, (±)-1-(4-(Hydroxymethyl)pyridin-2-yl)-2-(7-methyl-1H-indazol-5-yl)ethyl 4-(2-oxo-1,2-dihydroquinazolin-3(4H)-yl)piperidine-1-carboxylate] was tested. Which IC50 did it give?
The IC50 was < 0.01 µM.

For `Cc1cc(CC(NC(=O)N2CCC(N3Cc4ccccc4NC3=O)CC2)c2ccc3ccccc3n2)cc2cn[nH]c12` (racemic) [Example 34, (±)-N-(2-(7-Methyl-1H-indazol-5-yl)-1-(quinolin-2-yl)ethyl)-4-(2-oxo-1,2-dihydroquinazolin-3(4H)-yl)piperidine-1-carboxamide], which IC50 is on record?
Its IC50 is < 0.01 µM.

How did the IC50 turn out when `Cc1cc(C[C@@H](OC(=O)N2CCC(c3cc4ccccc4[nH]c3=O)CC2)c2nc(-c3cccnc3)no2)cc2cn[nH]c12` [Example 102, (R)-2-(7-Methyl-1H-indazol-5-yl)-1-(3-(pyridin-3-yl)-1,2,4-oxadiazol-5-yl)ethyl 4-(2-oxo-1,2-dihydroquinolin-3-yl)piperidine-1-carboxylate] was run?
The IC50 was 0.01 to 0.1 µM.
